In ChEMBL document CHEMBL1201862, “PubChem BioAssay data set” (2004):
Active and inactive are the calls of the source.

What was measured:
Estrogen receptor beta [1] = molecular target: T1, Estrogen receptor beta (Homo sapiens, UniProt Q92731); assay: ERβ–SRC-3 coactivator interaction inhibitors, confirmation, orthogonal assay, biochemical, ELISA, streptavidin-HRP readout (AID 1060)
[2] = molecular target: T2, Replicative DNA helicase DnaB (Mycobacterium tuberculosis, UniProt P9WMR3); assay: DnaB intein splicing inhibitors, dose response, biochemical, cell-free fluorescence (AID 449749); type: functional
T2 sequence (P9WMR3 whole entry): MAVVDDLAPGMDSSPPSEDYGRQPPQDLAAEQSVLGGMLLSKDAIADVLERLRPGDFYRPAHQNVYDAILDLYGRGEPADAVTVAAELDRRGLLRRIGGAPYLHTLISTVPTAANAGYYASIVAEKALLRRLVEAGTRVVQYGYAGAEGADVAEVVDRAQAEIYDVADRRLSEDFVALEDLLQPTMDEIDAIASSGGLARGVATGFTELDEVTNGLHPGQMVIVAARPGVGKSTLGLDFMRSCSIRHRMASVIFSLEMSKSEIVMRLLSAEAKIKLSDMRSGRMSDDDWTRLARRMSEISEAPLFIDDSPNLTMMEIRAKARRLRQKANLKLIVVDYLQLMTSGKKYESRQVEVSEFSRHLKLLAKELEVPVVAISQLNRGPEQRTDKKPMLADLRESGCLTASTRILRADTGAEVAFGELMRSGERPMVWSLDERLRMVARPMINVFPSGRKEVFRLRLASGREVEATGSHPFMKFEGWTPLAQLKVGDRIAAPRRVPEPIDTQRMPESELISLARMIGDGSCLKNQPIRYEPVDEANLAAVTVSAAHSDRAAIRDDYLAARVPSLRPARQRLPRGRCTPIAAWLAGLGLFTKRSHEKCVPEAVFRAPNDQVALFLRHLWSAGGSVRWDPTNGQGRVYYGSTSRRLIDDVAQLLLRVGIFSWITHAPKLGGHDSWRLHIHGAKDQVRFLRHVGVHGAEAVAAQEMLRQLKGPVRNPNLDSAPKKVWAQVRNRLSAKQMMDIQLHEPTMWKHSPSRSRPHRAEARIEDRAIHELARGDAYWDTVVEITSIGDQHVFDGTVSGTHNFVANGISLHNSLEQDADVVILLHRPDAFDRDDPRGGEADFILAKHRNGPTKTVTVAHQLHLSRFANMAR

Protein Tat = molecular target: T3, Protein Tat (Human immunodeficiency virus type 1 group M subtype B (isolate HXB2)(HIV-1), UniProt P04608); type: functional;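 also: tat binding to TAR RNA read out by fluorescence polarization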
T3 sequence (P04608 whole entry): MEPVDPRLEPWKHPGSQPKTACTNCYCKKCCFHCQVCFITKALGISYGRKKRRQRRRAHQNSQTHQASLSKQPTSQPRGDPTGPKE

[3] = molecular target: T4, Apoptotic protease-activating factor 1 (Homo sapiens, UniProt O14727); type: functional
T4 sequence (O14727 whole entry): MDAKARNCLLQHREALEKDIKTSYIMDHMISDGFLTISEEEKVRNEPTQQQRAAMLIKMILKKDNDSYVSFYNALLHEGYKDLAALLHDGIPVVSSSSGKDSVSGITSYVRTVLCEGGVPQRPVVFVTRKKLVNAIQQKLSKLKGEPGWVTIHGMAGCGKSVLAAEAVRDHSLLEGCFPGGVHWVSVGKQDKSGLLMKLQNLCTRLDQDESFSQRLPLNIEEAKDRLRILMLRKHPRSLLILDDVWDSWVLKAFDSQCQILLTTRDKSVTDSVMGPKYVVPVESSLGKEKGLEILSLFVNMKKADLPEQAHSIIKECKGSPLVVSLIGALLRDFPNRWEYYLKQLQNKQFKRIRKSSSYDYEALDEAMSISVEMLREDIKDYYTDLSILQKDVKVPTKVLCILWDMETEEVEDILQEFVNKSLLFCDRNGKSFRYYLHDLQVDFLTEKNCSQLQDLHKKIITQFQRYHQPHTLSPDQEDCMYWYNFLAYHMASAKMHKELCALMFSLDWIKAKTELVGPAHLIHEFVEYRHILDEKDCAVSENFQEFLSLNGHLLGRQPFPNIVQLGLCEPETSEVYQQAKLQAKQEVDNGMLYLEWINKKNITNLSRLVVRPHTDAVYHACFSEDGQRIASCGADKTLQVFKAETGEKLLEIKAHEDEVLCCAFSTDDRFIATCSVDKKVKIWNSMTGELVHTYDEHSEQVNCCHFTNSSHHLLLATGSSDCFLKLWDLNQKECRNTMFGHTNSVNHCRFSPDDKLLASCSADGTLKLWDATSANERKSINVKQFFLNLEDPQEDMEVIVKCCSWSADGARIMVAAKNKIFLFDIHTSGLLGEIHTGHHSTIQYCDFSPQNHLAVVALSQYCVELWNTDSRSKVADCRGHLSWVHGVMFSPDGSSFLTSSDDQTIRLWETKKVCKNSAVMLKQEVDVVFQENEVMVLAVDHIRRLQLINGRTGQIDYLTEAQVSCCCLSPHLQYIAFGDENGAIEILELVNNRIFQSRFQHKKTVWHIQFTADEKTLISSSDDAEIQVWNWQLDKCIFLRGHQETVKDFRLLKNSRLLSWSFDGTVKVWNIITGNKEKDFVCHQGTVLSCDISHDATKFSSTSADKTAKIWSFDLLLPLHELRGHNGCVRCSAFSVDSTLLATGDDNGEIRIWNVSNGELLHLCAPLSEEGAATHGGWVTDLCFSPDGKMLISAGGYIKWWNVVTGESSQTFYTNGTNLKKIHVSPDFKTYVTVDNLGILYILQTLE

Protein RecA = molecular target: T5, Protein RecA (Mycobacterium tuberculosis, UniProt P9WHJ3); assay: Fluorescence Cell-Free Homogeneous Dose Retest to Identify Inhibitors of RecA-Intein Splicing Activity. [Related pubchem assays (depositor defined):AID2097, AID2223, AID489010, AID492950]; type: functional
T5 sequence (P9WHJ3 whole entry): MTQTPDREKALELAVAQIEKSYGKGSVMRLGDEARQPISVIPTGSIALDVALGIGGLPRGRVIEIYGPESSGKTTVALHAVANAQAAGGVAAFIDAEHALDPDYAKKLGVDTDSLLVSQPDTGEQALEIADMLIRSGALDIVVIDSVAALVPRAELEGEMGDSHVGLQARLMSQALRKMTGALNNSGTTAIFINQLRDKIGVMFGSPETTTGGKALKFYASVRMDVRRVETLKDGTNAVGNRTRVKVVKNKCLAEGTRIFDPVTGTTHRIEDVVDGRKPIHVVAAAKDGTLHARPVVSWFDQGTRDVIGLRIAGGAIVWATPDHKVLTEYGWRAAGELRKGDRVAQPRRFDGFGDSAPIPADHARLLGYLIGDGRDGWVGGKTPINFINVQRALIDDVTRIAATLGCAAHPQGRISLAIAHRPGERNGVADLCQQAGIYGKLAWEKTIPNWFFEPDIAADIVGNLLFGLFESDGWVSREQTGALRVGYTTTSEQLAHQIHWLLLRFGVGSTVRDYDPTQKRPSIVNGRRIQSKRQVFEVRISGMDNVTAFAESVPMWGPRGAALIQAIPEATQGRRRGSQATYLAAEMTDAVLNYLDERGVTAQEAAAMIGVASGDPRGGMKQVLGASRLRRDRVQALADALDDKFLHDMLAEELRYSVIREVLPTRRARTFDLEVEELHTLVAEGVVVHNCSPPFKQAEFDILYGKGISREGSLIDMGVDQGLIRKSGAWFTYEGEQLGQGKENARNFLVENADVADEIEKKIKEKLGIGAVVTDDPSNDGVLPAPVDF

[4] = cytotoxicity in KRAS-transformed pancreatic duct cells, primary screen, cell-based, fluorescence, HTS (AID 431); type: functional; conditions: Homo sapiens;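 also: cell line used: HPDE-C7K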
[5] = molecular target: T6, Neuropeptide Y receptor type 1 (Homo sapiens, UniProt P25929); assay: NPY-Y1 receptor antagonist potency, dose response, cell-based (AID 1277); type: functional
T6 sequence (P25929 whole entry): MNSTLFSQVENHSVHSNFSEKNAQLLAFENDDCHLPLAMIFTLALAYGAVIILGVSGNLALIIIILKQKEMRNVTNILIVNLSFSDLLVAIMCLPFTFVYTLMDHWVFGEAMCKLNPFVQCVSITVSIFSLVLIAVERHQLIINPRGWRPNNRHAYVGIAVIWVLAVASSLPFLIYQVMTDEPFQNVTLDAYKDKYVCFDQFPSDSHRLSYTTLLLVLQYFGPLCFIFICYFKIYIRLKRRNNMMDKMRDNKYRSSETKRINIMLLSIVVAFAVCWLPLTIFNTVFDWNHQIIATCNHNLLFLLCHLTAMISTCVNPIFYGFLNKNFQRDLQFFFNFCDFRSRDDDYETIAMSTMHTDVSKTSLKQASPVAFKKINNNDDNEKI

Streptokinase A = molecular target: T7, Streptokinase A (Streptococcus pyogenes serotype M1, UniProt P10520); assay: S. pyogenes streptokinase expression inhibitors, potency, dose response, plasminogen activation absorbance, OD405 (AID 1914); type: functional, Streptococcus pyogenes M1 GAS;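 also: secreted streptokinase activity via plasminogen activation per viability signal from cell pellet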
T7 sequence (P10520 whole entry): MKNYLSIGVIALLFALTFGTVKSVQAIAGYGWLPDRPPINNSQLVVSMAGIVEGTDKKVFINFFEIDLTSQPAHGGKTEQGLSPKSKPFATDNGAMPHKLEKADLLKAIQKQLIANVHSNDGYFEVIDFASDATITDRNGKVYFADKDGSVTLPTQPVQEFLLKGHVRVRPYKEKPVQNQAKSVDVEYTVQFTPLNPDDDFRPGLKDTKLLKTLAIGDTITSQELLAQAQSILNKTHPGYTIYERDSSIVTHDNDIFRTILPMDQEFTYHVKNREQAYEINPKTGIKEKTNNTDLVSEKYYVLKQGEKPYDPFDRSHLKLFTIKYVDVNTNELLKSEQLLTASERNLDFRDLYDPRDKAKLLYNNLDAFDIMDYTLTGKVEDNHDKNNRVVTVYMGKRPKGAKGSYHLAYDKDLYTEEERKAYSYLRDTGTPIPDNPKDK

Streptococcus = assay: Group A Streptococcus viability loss, dose response, counter-screen for streptokinase expression inhibitor project, luminescence, BacTiterGlo (AID 1915); type: functional, organism-based;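 also: potency for reduction of bacterial viability or growth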
[6] = cytotoxicity in HPDE-C7 cells, cell-based, fluorescence, HTS (AID 430); type: functional; conditions: Homo sapiens
[7] = system: Streptococcus sp. 'group A'; assay: growth inhibition of control SK(-) GAS strain, dose response, counter-screen for streptokinase expression inhibitor project, luminescence, kanamycin, BacTiterGlo, confirmation (AID 1900); type: functional, organism-based
[8] = molecular target: T8, Neuropeptide Y receptor type 2 (Homo sapiens, UniProt P49146); assay: NPY-Y2 antagonist potency, selectivity check, dose response, counter-screen for NPY-Y1 antagonist project, cell-based (AID 1278); type: functional
T8 sequence (P49146 whole entry): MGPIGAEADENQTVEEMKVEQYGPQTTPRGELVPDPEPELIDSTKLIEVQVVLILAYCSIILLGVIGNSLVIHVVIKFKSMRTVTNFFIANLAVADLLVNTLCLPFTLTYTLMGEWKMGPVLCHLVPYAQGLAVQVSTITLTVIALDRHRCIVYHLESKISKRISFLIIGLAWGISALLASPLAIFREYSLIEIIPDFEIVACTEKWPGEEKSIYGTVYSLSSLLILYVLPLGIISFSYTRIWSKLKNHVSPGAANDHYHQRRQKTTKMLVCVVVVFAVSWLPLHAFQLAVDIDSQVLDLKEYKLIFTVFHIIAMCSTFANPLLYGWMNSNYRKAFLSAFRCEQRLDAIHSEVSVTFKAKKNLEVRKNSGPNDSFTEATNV

Coagulation factor XII = molecular target: T9, Coagulation factor XII (Homo sapiens, UniProt P00748); type: functional;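 also: activated factor XIIa alpha cleaving a fluorogenic AMC peptide substrate; inhibitor potency from loss of enzyme activity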
T9 sequence (P00748 whole entry): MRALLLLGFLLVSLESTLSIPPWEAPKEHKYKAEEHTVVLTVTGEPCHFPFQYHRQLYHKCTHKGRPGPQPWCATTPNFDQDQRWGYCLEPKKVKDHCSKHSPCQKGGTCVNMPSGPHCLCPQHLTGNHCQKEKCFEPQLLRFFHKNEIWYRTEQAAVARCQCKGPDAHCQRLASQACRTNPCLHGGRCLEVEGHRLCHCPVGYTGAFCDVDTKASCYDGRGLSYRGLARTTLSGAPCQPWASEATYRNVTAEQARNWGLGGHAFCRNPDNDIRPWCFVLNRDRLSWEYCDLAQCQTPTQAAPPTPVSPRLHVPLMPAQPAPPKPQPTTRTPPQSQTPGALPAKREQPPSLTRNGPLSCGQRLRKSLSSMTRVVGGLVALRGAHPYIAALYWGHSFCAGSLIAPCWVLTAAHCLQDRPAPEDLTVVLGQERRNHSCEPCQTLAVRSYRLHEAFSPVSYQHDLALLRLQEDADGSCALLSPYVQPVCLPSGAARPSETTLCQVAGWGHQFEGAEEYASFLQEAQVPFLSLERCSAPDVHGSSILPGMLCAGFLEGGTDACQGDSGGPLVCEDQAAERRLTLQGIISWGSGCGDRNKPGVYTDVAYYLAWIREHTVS

Estrogen receptor beta [9] = molecular target: T1, Estrogen receptor beta
[10] = HepG2 cell cytotoxicity, dose response, cytotoxicity control for Shn3 inhibitor project, CellTiter-Glo, cherry-picked (AID 624134); type: functional, cell-based
[11] = control 3'UTR Renilla luciferase suppression, dose response, counter-screen for Shn3 inhibitor project, cell-based, Clone20-Shn3RL, cherry-picked (AID 624133); type: functional
[12] = HEp-2 cell cytotoxicity, dose response, cytotoxicity control for RSV inhibitor project, HTS (AID 2410); type: functional; conditions: human respiratory syncytial virus
[13] = Shn3 3'UTR reporter inhibitors, dose response, cell-based, Clone20 osteoblasts, firefly luciferase, cherry-picked (AID 624132); type: functional;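 also: firefly luciferase luminescence from reporter carrying the Shn3 3'UTR in osteoblasts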

T1 sequence (Q92731 whole entry): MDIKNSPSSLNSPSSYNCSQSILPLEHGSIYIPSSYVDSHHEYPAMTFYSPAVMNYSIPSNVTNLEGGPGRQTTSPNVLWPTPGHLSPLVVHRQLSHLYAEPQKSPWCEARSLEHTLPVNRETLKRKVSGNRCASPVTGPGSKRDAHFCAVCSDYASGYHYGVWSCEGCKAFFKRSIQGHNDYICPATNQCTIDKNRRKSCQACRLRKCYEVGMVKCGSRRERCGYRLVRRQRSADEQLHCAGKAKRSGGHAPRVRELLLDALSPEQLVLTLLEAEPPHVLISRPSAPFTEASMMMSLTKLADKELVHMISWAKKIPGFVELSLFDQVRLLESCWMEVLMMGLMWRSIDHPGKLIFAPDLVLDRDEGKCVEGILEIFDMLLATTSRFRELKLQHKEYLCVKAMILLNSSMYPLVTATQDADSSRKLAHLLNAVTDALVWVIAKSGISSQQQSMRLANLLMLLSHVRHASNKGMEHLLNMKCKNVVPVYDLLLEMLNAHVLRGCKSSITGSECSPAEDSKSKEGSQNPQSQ

NC(=O)Cc1c[nH]c2cccc(O)c12
IC50 (Estrogen receptor beta [1]): > 50 µM (not active)

Nc1ccc(Oc2ncccn2)cc1
AC50 [2]: 29.6 µM (active) | IC50 (Protein Tat): > 100 µM (active) | IC50 [3]: 25.7 µM (active) | EC50 (Protein RecA): 13.8 µM (active)

CC(NC(=O)Nc1nnc(C(F)(F)F)s1)(C(F)(F)F)C(F)(F)F
EC50 [4]: 14.4 µM (active) | IC50 [5]: > 35 µM (not active) | EC50 (Streptokinase A): > 150 µM (not active) | EC50 (Streptococcus): 7.84 µM (active) | EC50 [6]: 8.76 µM (active) | EC50 [7]: 3.54 µM (active) | IC50 [8]: > 35 µM (not active) | IC50 (Coagulation factor XII): > 50 µM (inactive)

O=C(CSc1nnc(Nc2ccccc2F)s1)NCc1ccco1
IC50 (Estrogen receptor beta [9]): 13.7 µM (active) | IC50 (Estrogen receptor beta [1]): 0.142 µM (not active)

O=S(=O)(Nc1ccc(N2CCOCC2)cc1)c1cccs1
IC50 (Estrogen receptor beta [1]): > 50 µM (not active)

CC(C)(C)n1nnnc1C(c1ccc(C(F)(F)F)cc1)N(Cc1ccccc1)Cc1ccco1 (stereo not drawn)
AC50 [10]: 44.1 µM (active) | IC50 [5]: > 35 µM (not active) | AC50 [11]: 6.74 µM (active) | CC50 [12]: 9.91 µM (active) | IC50 [8]: > 35 µM (not active) | AC50 [13]: 4.74 µM (active)

N#CC(C(=O)Nc1ccccc1)=C1CCCCC1
IC50 (Estrogen receptor beta [9]): > 50 µM (not active)
